The values below come from US9006241B2, “Pyrimidine derivatives” (Noviga Research AB, priority 2011, dated 2015).

The structures appear in SMILES notation. Where only a bound is given, the exact number is not on record here.

For this experiment, the system named is CCRF-CEM cancer cells - leukemia. Description: Fluorometric Microculture Cytotoxicity Assay (FMCA), CCRF-CEM. Type of experiment: cell-based. The note with it: Homo sapiens, 72 h incubation. An excerpt:
The Fluorometric Microculture Cytotoxicity Assay, FMCA (Larsson, R., et al.; Anticancer Res, 1989, 9, 1111-1119), is a three day non-clonogenic microplate-based cell viability assay used for measurement of the cytotoxic and/or cytostatic effect of compounds in vitro (Lindhagen, E. et al.; Nat. Protoc., 2008, 3, 1364-1369). FMCA represents a valuable method to measure cytotoxicity in a number of cell types, both cell lines and primary cells from patients (Larsson, R., et al.; Int. J. Cancer, 1992, 50, 177-185; Fridborg, H., et al.; Eur. J. Cancer, 1999. 35, 424-432; Dhar, S., et al.; Br. J. Cancer, 1996, 74, 888-896).
FMCA is based on the principle that fluorescein diacetate (FDA) is converted to the fluorescent probe fluorescein by esterases in the plasma membranes of living cells. For experiments, 96 or 384-well microplates are prepared with compounds and stored at −70° C. until use. Cells are then seeded into the drug-prepared plates and placed in an incubator for 72 h. On the last day of incubation, the plates are washed and a buffer containing FDA is added and incubated with the cells for 45 minutes. Finally the fluorescence per well is measured in a fluorometer and a Survival Index % (SI) for each compound-treated well is calculated with the equation: Compound-treated cells minus blank divided by control cells minus blank. A high SI-value indicates a large percentage of living cells and vice versa.
In subsequent experiments, compounds were tested, along with a number of approved cancer drugs (dasatinib, pazopanib, sorafenib, and sunitinib) as described above. Initially, the acute lymphoblastic leukemia cell line CCRF-CEM was used throughout. In the assay plates, medium was added to six empty wells (blank wells) and wells were filled with PBS and cell suspension and served as control wells. SI-values were then calculated for each compound-treated well as described above. All experiments were conducted twice and a new batch of plates was prepared for each experiment.
For dose-response experiments, 384-well plates were prepared as follows:
Compounds of the invention as well comparative kinase inhibitors sorafenib sunitinib, dasatinib, pazopanib and a reference compound disclosed in WO 2009/071535 (compound #107) were diluted with PBS to a concentration ten-times higher than the desired starting concentration. Then, a Biomek 2000 liquid handling system was employed to serially dilute the compounds in a deep-well 384-well plate. From this plate, assay plates containing 5 μl compound per well were prepared with the Biomek 2000. Certain compounds precipitated when diluted with PBS, and these compounds were therefore prepared in a 96-well plate manually as described above using culture medium RPMI 1640 instead of PBS.
The compounds were also tested at five concentrations, with five times serial dilution on the following cell types: CCRF-CEM, hTERT-RPE1 (normal retinal epithelial cells), hRPTEpiC (normal renal cells), and peripheral blood mononuclear cells (PBMC). Each experiment was performed three times, except for PBMC and hRPTEpiC, which were performed twice. SI-values were calculated, graphs were plotted using GraphPadPrism 5.0 (GraphPad Software Inc. La Jolla, Calif.) and IC50-values for each cell type and compound were determined from the curves.
The molecule `COc1ccc2[nH]cc(CCNc3nc(Nc4ccc5[nH]c(C)cc5c4)cc(C(N)=O)n3)c2c1` [Example 28, 2-[2-(5-methoxy-1H-indol-3-yl)ethylamino]-6-(2-methyl-1H-indol-5-ylamino)pyrimidine-4-carboxamide] showed an EC50 of 58 nM. In other words, the double-digit nanomolar range.

`COc1ccc2[nH]cc(CCNc3nccc(N(C)c4ccc5c(c4)cc(C)n5C)n3)c2c1` [Example 62, N^4-(1,2-dimethyl-1H-indol-5-yl)-N^2-[2-(5-methoxy-1H-indol-3-yl)ethyl]-N^4-methylpyrimidine-2,4-diamine]: the EC50 is 1000 to 10000 nM. `Cc1cc(Nc2ccc3[nH]c(C)cc3c2)nc(NCCc2c[nH]c3ccccc23)n1` [Example 26, N^2-[2-(1H-indol-3-yl)ethyl]-6-methyl-N^4-(2-methyl-1H-indol-5-yl)pyrimidine-2,4-diamine]: the EC50 stood at 650 nM. As for `COC(=O)c1cc2cc(Nc3ccnc(NCCc4c[nH]c5ccc(OC)cc45)n3)ccc2[nH]1` [Example 16, methyl 5-{2-[2-(5-methoxy-1H-indol-3-yl)ethylamino]pyrimidin-4-ylamino}-1H-indole-2-carboxylate], a half-maximal effect (EC50) was put at 940 nM. In the case of `Cc1cc2cc(Nc3ccnc(NCCc4c[nH]c5ccc(OC(F)(F)F)cc45)n3)ccc2[nH]1` [Example 7, N^4-(2-methyl-1H-indol-5-yl)-N^2-{2-[5-(trifluoromethoxy)-1H-indol-3-yl]ethyl}pyrimidine-2,4-diamine] it was 140 nM.

For the molecule `Cc1cc2cc(Nc3ccnc(NCCc4c[nH]c5ccc(F)cc45)n3)ccc2[nH]1` [Example 10, N^2-[2-(5-fluoro-1H-indol-3-yl)ethyl]-N^4-(2-methyl-1H-indol-5-yl)pyrimidine-2,4-diamine], the EC50 is 280 nM. Compared with the last molecule, the EC50 is about 2-fold higher. In the case of `c1ccc2c(CCNc3ccnc(Nc4ccc5cc[nH]c5c4)n3)c[nH]c2c1` [Example 24, N^4-[2-(1H-indol-3-yl)ethyl]-N^2-(1H-indol-6-yl)pyrimidine-2,4-diamine] it was 1000 to 10000 nM; in that of `CNC(=O)c1cc(Oc2ccc(NC(=O)Nc3ccc(Cl)c(C(F)(F)F)c3)cc2)ccn1` [Ref. 1, sorafenib, reference compound], 8300 nM. `COc1ccc2[nH]cc(CCNc3nccc(Nc4ccc5c(c4)nc(C)n5C)n3)c2c1` [Example 53, N^4-(1,2-dimethyl-1H-benzo[d]imidazol-5-yl)-N^2-[2-(5-methoxy-1H-indol-3-yl)ethyl]pyrimidine-2,4-diamine]: the 50% effective concentration (EC50) was found to be 33 nM. For `CCOc1ccc2[nH]cc(CCNc3nccc(Nc4cccc5[nH]c(C)cc45)n3)c2c1` [Example 78, N^2-[2-(5-ethoxy-1H-indol-3-yl)ethyl]-N^4-(2-methyl-1H-indol-4-yl)pyrimidine-2,4-diamine], the EC50 is below 100 nM.

`CCOc1ccc2[nH]cc(CCNc3nc(Nc4cccc5c4ccn5C)cc(C(N)=O)n3)c2c1` [Example 88, 2-[2-(5-ethoxy-1H-indol-3-yl)ethylamino]-6-[(1-methylindol-4-yl)amino]pyrimidine-4-carboxamide] returned an EC50 below 100 nM. In the case of `CCOc1ccc2[nH]cc(CCNc3nccc(Nc4ccc5cc(C)[nH]c5c4)n3)c2c1` [Example 74, N^2-[2-(5-ethoxy-1H-indol-3-yl)ethyl]-N^4-(2-methyl-1H-indol-6-yl)pyrimidine-2,4-diamine] it was below 100 nM; in that of `Cc1nc(Nc2ncc(C(=O)Nc3c(C)cccc3Cl)s2)cc(N2CCN(CCO)CC2)n1` [Ref. 3, dasatinib, reference compound], 9700 nM. To `Cn1ccc2c(Nc3ccnc(NCCc4c[nH]c5ccc(O)cc45)n3)cccc21` [Example 79, 3-[2-({4-[(1-methylindol-4-yl)amino]pyrimidin-2-yl}amino)ethyl]-1H-indol-5-ol] belongs below 1000 nM; to `COc1ccc2[nH]cc(CCNc3ncc(C)c(Nc4ccc5[nH]c(C)cc5c4)n3)c2c1` [Example 29, N^2-[2-(5-methoxy-1H-indol-3-yl)ethyl]-5-methyl-N^4-(2-methyl-1H-indol-5-yl)pyrimidine-2,4-diamine], 57 nM; to `COc1ccc2[nH]cc(CCNc3nccc(Nc4ccc5ccn(C)c5c4)n3)c2c1` [Example 75, N^2-[2-(5-methoxy-1H-indol-3-yl)ethyl]-N^4-(1-methylindol-6-yl)pyrimidine-2,4-diamine], below 1000 nM. In the case of `COc1ccc2[nH]cc(CCN(C)c3nccc(Nc4ccc5[nH]c(CO)cc5c4)n3)c2c1` [Example 59, [5-(2-{[2-(5-methoxy-1H-indol-3-yl)ethyl][methyl]amino}pyrimidin-4-ylamino)-1H-indol-2-yl]methanol] it was 1000 to 10000 nM. As to `COc1ccc2[nH]cc(CCNc3ccnc(Nc4cccc5c4ccn5C)n3)c2c1` [Example 84, N^4-[2-(5-methoxy-1H-indol-3-yl)ethyl]-N^2-(1-methylindol-4-yl)pyrimidine-2,4-diamine], the EC50 was below 100 nM.

In turn, `COc1ccc2[nH]cc(CCNc3nccc(Nc4cccc5[nH]ccc45)n3)c2c1` [Example 21, N^4-(1H-indol-4-yl)-N^2-[2-(5-methoxy-1H-indol-3-yl)ethyl]pyrimidine-2,4-diamine] registered an EC50 of 59 nM. In the case of `CCOc1ccc2[nH]cc(CCNc3nccc(Nc4ccc5[nH]c(CO)cc5c4)n3)c2c1` [Example 72, [5-({2-[2-(5-ethoxy-1H-indol-3-yl)ethylamino]pyrimidin-4-yl}amino)-1H-indol-2-yl]methanol] it was below 100 nM; in that of `COc1cccc2c(CCNc3nccc(Nc4ccc5[nH]c(C)cc5c4)n3)c[nH]c12` [Example 12, N^2-[2-(7-methoxy-1H-indol-3-yl)ethyl]-N^4-(2-methyl-1H-indol-5-yl)pyrimidine-2,4-diamine], 130 nM.

Molecule `Cc1cc2cc(Nc3ccnc(NCCc4c[nH]c5ccc(OCCN6CCOCC6)cc45)n3)ccc2[nH]1` [Example 6, N^4-(2-methyl-1H-indol-5-yl)-N^2-{2-[5-(2-morpholinoethoxy)-1H-indol-3-yl]ethyl}pyrimidine-2,4-diamine] yielded an EC50 of 2900 nM. In the case of `Cc1cc2cc(Nc3ccnc(NCCc4c[nH]c5ccccc45)n3)ccc2[nH]1` [Example 3, N^2-[2-(1H-indol-3-yl)ethyl]-N^4-(2-methyl-1H-indol-5-yl)pyrimidine-2,4-diamine] it was 290 nM; in that of `COc1ccc2[nH]cc(CCNc3nc(Nc4ccc5[nH]c(C)cc5c4)cc(N4CCN(C)CC4)n3)c2c1` [Example 30, N^2-[2-(5-methoxy-1H-indol-3-yl)ethyl]-N^4-(2-methyl-1H-indol-5-yl)-6-(4-methylpiperazin-1-yl)pyrimidine-2,4-diamine], 3000 nM.

`COc1ccc2[nH]cc(CCNc3nc(Nc4cccc5c4ccn5C)cc(N4CCN(C)CC4)n3)c2c1` [Example 89, N^2-[2-(5-methoxy-1H-indol-3-yl)ethyl]-N^4-(1-methylindol-4-yl)-6-(4-methylpiperazin-1-yl)pyrimidine-2,4-diamine] yielded a 50% effective concentration (EC50) below 1000 nM.

The molecule `c1ccc2c(CCNc3ccnc(Nc4cccc5[nH]ccc45)n3)c[nH]c2c1` [Example 25, N^4-[2-(1H-indol-3-yl)ethyl]-N^2-(1H-indol-4-yl)pyrimidine-2,4-diamine] had an EC50 of 1000 to 10000 nM. To `Cc1ccc(Nc2nccc(N(C)c3ccc4c(C)n(C)nc4c3)n2)cc1S(N)(=O)=O` [Ref. 4, pazopanib, reference compound] belongs 25900 nM; to `COc1ccc2c(CCNc3nccc(Nc4ccc5[nH]c(C)cc5c4)n3)c[nH]c2c1` [Example 11, N^2-[2-(6-methoxy-1H-indol-3-yl)ethyl]-N^4-(2-methyl-1H-indol-5-yl)pyrimidine-2,4-diamine], 150 nM; to `COc1ccc2[nH]cc(CCNc3nccc(Nc4cccc5[nH]c(C)nc45)n3)c2c1` [Example 82, N^2-[2-(5-methoxy-1H-indol-3-yl)ethyl]-N^4-(2-methyl-1H-benzimidazol-4-yl)pyrimidine-2,4-diamine], below 1000 nM.

`COc1ccc2[nH]cc(CCNc3nccc(Nc4cccc5c4cc(C)n5C)n3)c2c1` [Example 81, N^4-(1,2-dimethylindol-4-yl)-N^2-[2-(5-methoxy-1H-indol-3-yl)ethyl]pyrimidine-2,4-diamine] registered an EC50 below 100 nM.
